Where a name gives a salt, the structure may show the parent alone. Read-outs that look alike come from different tables or passages of the source.

The conditions of series [1]: cited from earlier work.
Series [2] is described as follows: Binary supramolecular self-assembly systems of polymer and target: guest concentration over incubation time (Comparative Example 2). The format is physicochemical. As to conditions: for Concentration of guest molecule in solution / Times that of the initial medium: 6 h. As to the method:
Experiments were conducted according to the steps in Comparative Example 1, and quantitative analysis was carried out using the analytical method for each target to investigate the regulation ability […] stacking.

Series [3] in a line: Binary (carrier), ternary and quaternary supramolecular self-assembly systems of polymer, carrier building block and target: guest concentration over incubation time (Examples 1-56). The class given is physicochemical. As to conditions: for Concentration of guest molecule in solution / Times that of the initial medium: 6 h. As to the method:
(§1) pH 2.0 hydrochloric acid, pH 4.5 acetate, and pH 6.5, pH 6.8, or pH 7.4 phosphate buffer solutions were prepared. The selection of each initial medium followed the principle that the solubility in the initial medium of the selected targets (or active ingredients) should low enough, but should meet the detection sensitivity and accuracy requirements of the corresponding analytical methods. Each buffer as initial media was placed in a 50 ml test tube with a stopper, shaken in a constant temperature air shaker at 37° C.±0.5° C., with an amplitude of 200 rpm, and incubated for 1 hour. […] Samples were taken at 0.5 h, 3 h and 6 h after incubation, centrifuged at 37° C., 13000 rpm for 5 minutes, and the supernatant was diluted at least 10 times with the mobile phase under the target analyte analytical method, filtered, the initial filtrate was discarded, and the continued filtrate was used as the test solution for injection analysis. The corresponding HPLC method under each target object item in Table 8 was used to determine the content of each target substance. When the solubility of the target in the initial medium is below the quantitative limit of the analytical method, a small amount of surfactant, such as sodium dodecyl sulfate (SDS), Tween20, or Tween80, can be added appropriately.
Experiments were conducted according to the steps in Comparative Example 1, and quantitative analysis was carried out using the analytical method for each target to investigate the regulation ability of each binary supramolecular self-assembly system built from 0.5% polymer and target on guest molecules stacking.
Ternary supramolecular self-assembly systems based on different polymers, carrier building blocks, and targets were built according to the experimental scheme in Table 12, to investigate the influence of synergistic regulation of the carrier building blocks and the polymers on the stacking of target molecules, as well as the stability of the supramolecular self-assembly systems jointly built by them over incubation time. The initial medium, quantitative analysis method, pre-treatment method, and initial theoretical concentration of the target, corresponding to each target molecule in the experiment, were consistent with those in Comparative Examples 1 and 2. After a target was added to the system, the target was uniformly dispersed by ultrasonication at 37° C. for half an hour and then shaken in a 37° C. constant temperature air shaker, and samples were collected after different incubation time, i.e. 0.5 h, 1 h, 2 h, 3 h, 4 h, and 6 h.

A short description of series [4]: Guest molecule concentration after incubation in initial medium without polymer (Comparative Example 1). As to conditions: for Concentration of guest molecule measured after different incubated time: 37° C.; for Concentration of guest molecule in solution: initial medium. The class given is physicochemical. As to the method: as §1
The above targets were incubated at 37° C.±0.5° C. for different time in an initial medium without any polymer. Each solid target formed by molecular stacking was removed by centrifugation, and the supernatant was analyzed using the HPLC method under each target item (see Table 8). The theoretical addition concentration of each target when its supramolecular self-assembly system was built was determined by its maximum dose in clinical use.

[5] abbreviates: binary system with 0.5% polymer 102, incubation 0.5 h.
Setting [6] is: binary system with 0.5% polymer 102, incubation 3 h.
The mark [7] stands for this setting: binary system with 0.5% polymer 102, incubation 6 h.
The mark [8] stands for this setting: ternary: 0.25% 102M + 0.25% 301.
Where [9] appears, read: ternary: 0.25% 102M + 0.25% 302.
Where [10] appears, read: Cannabidiol derivatives, Table 30 (chemical structures).

Regarding `CCCCC[C@](C)(O)/C=C/[C@@H]1[C@@H](C/C=C\CCCC(=O)O)[C@@H](O)C[C@H]1O` [Carboprost, carboprost], the “Log P” value in series [1] (prost derivatives, Table 31 (relevant information)) is “Log P:2.89 D-H: 4 R-H: 5”.

Consider `CCCSc1nc(N[C@@H]2C[C@H]2c2ccc(F)c(F)c2)c2nnn([C@@H]3C[C@H](OCCO)[C@@H](O)[C@H]3O)c2n1` [Ticagrelor], for which the “Concentration of the target in the solution measured after different incubation time” value (“Concentration … after different incubation time” below) in series [2] (binary system with 0.5% polymer 101, incubation 0.5 h) was 132500 ng/mL; in series [2] (binary system with 0.5% polymer 101, incubation 3 h) it was 47200 ng/mL; in series [2] (binary system with 0.5% polymer 101, incubation 6 h), 46600 ng/mL; in series [2] (setting [5]), 169800 ng/mL; in series [2] (setting [6]) it was 166000 ng/mL; in series [2] (setting [7]), 161400 ng/mL. Also, the “Concentration … after different incubation time” value was found to be 19200 ng/mL in series [2] (binary system with 0.5% polymer 103, incubation 0.5 h); 20400 ng/mL in series [2] (binary system with 0.5% polymer 103, incubation 3 h); 17500 ng/mL in series [2] (binary system with 0.5% polymer 103, incubation 6 h); 11900 ng/mL in series [2] (binary system with 0.5% polymer 104, incubation 0.5 h); 9400 ng/mL in series [2] (binary system with 0.5% polymer 104, incubation 3 h); 9100 ng/mL in series [2] (binary system with 0.5% polymer 104, incubation 6 h). Further, the “Concentration … after different incubation time” value in series [2] (binary system with 0.5% polymer 106, incubation 0.5 h) was determined as 16800 ng/mL; in series [2] (binary system with 0.5% polymer 106, incubation 3 h) it was 17400 ng/mL; in series [2] (binary system with 0.5% polymer 106, incubation 6 h), 17300 ng/mL; in series [2] (binary system with 0.5% polymer 107, incubation 0.5 h), 48300 ng/mL; in series [2] (binary system with 0.5% polymer 107, incubation 3 h) it was 52100 ng/mL; in series [2] (binary system with 0.5% polymer 107, incubation 6 h), 45500 ng/mL. Further, the “Concentration … after different incubation time” value is 17000 ng/mL in series [2] (binary system with 0.5% polymer 110, incubation 0.5 h); 19200 ng/mL in series [2] (binary system with 0.5% polymer 110, incubation 3 h); 19100 ng/mL in series [2] (binary system with 0.5% polymer 110, incubation 6 h). The “Concentration of guest molecule in solution” value (“Concentration … in solution” for short) in series [2] (binary: 0.25% 102H) is 260200 ng/mL; in series [3] (setting [8]), 290800 ng/mL; in series [3] (setting [9]), 107200 ng/mL; in series [3] (ternary: 0.25% 102M + 0.5% 301) it was 394000 ng/mL; in series [3] (ternary: 102M + 318) it was 253700 ng/mL; in series [4] (6 h), 18400 ng/mL. Besides, the “Times that of the initial medium” value in series [2] (binary: 0.25% 102H) is “approximately 14 times”; in series [2] (binary: 0.25% 102M), “about 6 times”; in series [3] (setting [8]) it was 26 times; in series [3] (setting [9]) it was 9.7 times; in series [3] (ternary: 0.25% 102M + 0.5% 301), 35 times; in series [3] (ternary: 102M + 310, 312 or 313) it was 29 times. Further, the “Concentration of guest molecule measured after different incubated time” value (shortened to “Concentration … after different incubated time”) in series [4] (0.5 h, 0.05% SDS in pH 6.8 phosphate buffer) amounted to 11700 ng/mL; in series [4] (3 h, 0.05% SDS in pH 6.8 phosphate buffer), 11900 ng/mL; in series [4] (6 h, 0.05% SDS in pH 6.8 phosphate buffer) it was 7800 ng/mL.

Regarding `C=C(C)[C@@H]1CCC(C)=C[C@H]1c1c(OC(=O)CO[Si](C)(C)C(C)(C)C)cc(CCCCC)cc1OC(=O)CO[Si](C)(C)C(C)(C)C` [compound 54], in series [1] (setting [10]), the “Log P” value was “Log P = 9.55 H-D:0,H-R = 4”.

As for `C=C(C)[C@@H]1CCC(C)=C[C@H]1c1c(C)cc(O)cc1O` [compound 62, (5-methyl-4-[(1R,6R)-3-methyl-6-prop-1-en-2-ylcyclohex-2-en-1-yl]benzene-1,3-diol)], the “Log P” value in series [1] (setting [10]) is listed as “Log P = 4.55 H-D:2,H-R = 2”.

For `C=C(C)[C@@H]1CCC(C)=C[C@H]1c1c(O)cc(CCCCC)cc1OCC(=O)O` [compound 50], in series [1] (setting [10]), the “Log P” value is recorded as “Log P = 5.95 H-D:2,H-R = 4”.

With `CCCCCc1cc(O)c([C@@H]2C=C(C)CC[C@H]2C(C)C)c(O)c1` [compound 20, ((1′S,2′S)-2′-isopropyl-5′-methyl-4-pentyl-1′,2′,3′,4′-tetrahydro-[1,1′-biphenyl]-2,6-diol)], the “Log P” value in series [1] (setting [10]) is recorded as “Log P = 6.67 H-D:2,H-R = 2”.

For `COC(=O)[C@H](c1ccccc1Cl)N1CCc2sccc2C1` [Clopidogrel bisulfate], the figures for the “Concentration … in solution” value in series [2] (binary: 0.5% 103E3) and in series [4] (6 h) were 64370 ng/mL and 51970 ng/mL, respectively. Also, in series [3] (quaternary: 0.25% 204 (102M+103E3) + 0.25% 302, 310, 314 or 318, range over the systems), the “Times that of the initial medium” value was 13-17 times. For the same molecule, the “Concentration … after different incubated time” value in series [4] (0.5 h, pH 4.5 acetate buffer) was 48900 ng/mL; in series [4] (3 h, pH 4.5 acetate buffer) it was 39600 ng/mL; in series [4] (6 h, pH 4.5 acetate buffer) it was 52000 ng/mL.

For the molecule `CC(=O)CC(c1ccccc1)c1c(O)c2ccccc2oc1=O` (stereo not shown) [Warfarin], the “Encapsulation rate for the guest molecule” value in series [3] (quaternary: 0.25% 207 (101+103E5) + 0.1% 320) is on record as approximately 100%.

For `CC1=C[C@H](O)CC(C)(C)[C@H]1/C=C/C(C)=C/C=C/C(C)=C/C=C/C=C(C)/C=C/C=C(C)/C=C/C1=C(C)C[C@@H](O)CC1(C)C` [Lutein, lutein], the entries for the “Concentration … after different incubation time” value in series [2] (setting [5]), in series [2] (setting [6]) and in series [2] (setting [7]) were 16300 ng/mL, 16900 ng/mL and 16000 ng/mL, respectively. In addition, the “Concentration … after different incubated time” value in series [4] (0.5 h, pH 6.8 phosphate buffer) is 0 ng/mL; in series [4] (3 h, pH 6.8 phosphate buffer), 0 ng/mL; in series [4] (6 h, pH 6.8 phosphate buffer), 0 ng/mL.

As for `O=C1[C@@H]2[C@H]3CC[C@H](C3)[C@@H]2C(=O)N1C[C@@H]1CCCC[C@H]1CN1CCN(c2nsc3ccccc23)CC1` [Lurasidone hydrochloride], the “Concentration … in solution” value in series [2] (binary: 0.25% 101) amounted to 32400 ng/mL; in series [2] (binary: 0.25% 102H), 84400 ng/mL; in series [3] (binary: 0.25% 312) it was 71500 ng/mL; in series [3] (binary: 0.25% 314), 56600 ng/mL; in series [3] (binary: 0.5% 314) it was 198800 ng/mL; in series [3] (binary: 0.5% 319), 2300 ng/mL. The “Concentration … in solution” value in series [3] (ternary: 0.25% 102H + 312, carrier % not stated) came to 122100 ng/mL; in series [3] (ternary: 0.25% 319 + 0.25% 101) it was 11200 ng/mL; in series [3] (ternary: 102H + 310, carrier % not stated) it was 204900 ng/mL; in series [3] (ternary: 102H + 313, carrier % not given) it was 135700 ng/mL; in series [3] (ternary: 102H + 318, carrier % not stated) it was 141800 ng/mL. In addition, the “Times that of the initial medium” value stood at 81 times in series [3] (binary: 0.25% 314) and 284 times in series [3] (binary: 0.5% 314). In addition, the “Concentration … after different incubated time” value in series [4] (0.5 h, pH 6.8 phosphate buffer) amounted to 7300 ng/mL; in series [4] (3 h, pH 6.8 phosphate buffer) it was 10700 ng/mL; in series [4] (6 h, pH 6.8 phosphate buffer) it was 3200 ng/mL.

The record behind these values is patent publication US20250339399A1, “SUPRAMOLECULAR SELF-ASSEMBLY SYSTEM” (Beijing Creatron Institute of Pharmaceutical Research Co., …, priority 2022, published 2025).
